For assay [1], the target named is T1, human GHSR1a (Homo sapiens, UniProt Q92847).
T1 construct: expressed in transfected cells; host or cells: HEK293 Tetracycline-Inducible cell line, used as membranes
Kind of assay: Human Ghrelin SPA Binding Assay. The source says:
The SPA format was utilized for high throughput screening of test compounds and filter binding served for more comprehensive binding characterization.
Human Ghrelin SPA Binding Assay

Assay [2] deals with T1, human GHSR1a. The assay can be described thus: Human Ghrelin Functional Assay (DELFIA GTP-binding assay). The format is biochemical. To be noted: GTP-Europium exchange, human GHSR1a membranes, with and without ghrelin at EC80. How it is done:
Human Ghrelin Functional Assay
To measure the ability of test compounds in the present invention to modulate the activity of human GHSR1a (agonize, antagonize, partially agonize, inversely agonize), a DELFIA GTP-binding assay (Perkin Elmer, AD0260 and AD0261) is performed. The assay monitors the ligand-dependent exchange of GDP for GTP. GPCR activation results in an increase in fluorescence as receptor-bound GDP is replaced by Europium-labeled GTP.
Ghrelin functional assays are performed in a final volume of 39.5 μl containing 720 ng human GHSR1a (HEK293 Tetracycline-Inducible cell line expressing the human growth secretagogue receptor la, prepared as membranes), 9 nM GTP-Europium and varying concentrations of test compound or vehicle. To test for receptor antagonism, membranes are incubated in the presence of agonist ghrelin (Anaspec, 24158) at the EC80 concentration, plus test compound or vehicle.
Briefly, test compounds are prepared at room temperature in 384-well plates (Matrix, 4340). […] Samples are then transferred as 6 μl to 384-well filter plates (Pall, 5071) containing 30 μl of 24 μg/ml hGHSR1a membrane and 0.35 mg/ml saponin (Perkin Elmer, AD0261) in basal buffer.
The mixture is incubated 24 minutes at room temperature with gentle shaking, followed by the addition of 3.5 μl of 100 nM GTP-Europium in 50 mM HEPES, pH 7.4. Samples are shielded from light and incubated for 90 minutes further at room temperature with gentle shaking. The reactions are suctioned dry with vacuum, washed three times with 75 μl ice cold 1× GTP Wash Solution (Perkin Elmer, AD0261), and immediately read on the Envision 2101 Multilabel Reader (Perkin Elmer) using excitation filter 320 nm and emission filter 615 nm.

Setting [3] is: SPA format, [125I] ghrelin displacement, human GHSR1a membranes from HEK293 Tetracycline-Inducible cell line.
[4] abbreviates: SPA format, [125I] ghrelin displacement, human GHSR1a membranes, Ki=IC50/(1+[ligand]/Kd).

Where two headings read alike, the source gives them in different places.

T1 sequence (Q92847 whole entry): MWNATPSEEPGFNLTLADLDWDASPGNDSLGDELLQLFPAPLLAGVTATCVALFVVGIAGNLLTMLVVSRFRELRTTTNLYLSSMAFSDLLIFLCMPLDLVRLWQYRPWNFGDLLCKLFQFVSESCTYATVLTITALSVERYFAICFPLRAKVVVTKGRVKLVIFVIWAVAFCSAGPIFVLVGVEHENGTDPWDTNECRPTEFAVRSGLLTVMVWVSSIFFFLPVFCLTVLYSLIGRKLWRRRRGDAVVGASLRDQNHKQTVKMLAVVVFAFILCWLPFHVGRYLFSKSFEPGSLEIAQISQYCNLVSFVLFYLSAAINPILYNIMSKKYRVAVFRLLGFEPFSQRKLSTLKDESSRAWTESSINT

For orientation: IC50 means the concentration needed to halve the response being measured. A high value points to lower potency. Broadly, the Ki is a measure of affinity in units of concentration, obtained from inhibition or displacement. Low readings indicate higher affinity, high ones lower affinity. For the compound `Cc1cc(-c2ccc3c(c2)CC[C@H]3N2CC3(CCN(C(=O)Cc4ccc5c(n4)OCCO5)CC3)C2)ncn1` [Example 3D], on human GHSR1a [1], the half-maximal inhibitory concentration (IC50) came to 10.2 nM and the Ki was 8.91 nM. Further, on human GHSR1a [2], the functional comment entry was “inverse agonist”.
`Cc1cc(-c2ccc3c(c2)CC[C@H]3N2CC3(CCN(C(=O)Cc4cn5cc(C)sc5n4)CC3)C2)ncn1` [Example 3F] had a Ki on human GHSR1a [1] of 4.37 nM. At human GHSR1a [1] (setting [3]), this compound came in with an IC50 of 5.02 nM. For the same compound, the functional comment result on human GHSR1a [2] is “inverse agonist”.
On human GHSR1a [1], `Cc1ccn2cc(CC(=O)N3CCC4(CC3)CN([C@@H]3CCc5cc(-c6cc(C#N)ncn6)ccc53)C4)nc2c1` [Example 3AP] displayed an IC50 of 27.2 nM and a Ki of 24.4 nM. Further, the functional comment entry at human GHSR1a [2] was “inverse agonist”.
The like results for `Cc1cc(-c2ccc3c(c2)CC[C@H]3N2CC3(CCN(C(=O)Cc4cn5ccccc5n4)CC3)C2)ncn1` [Example 3L] were, in that order, 23 nM, 20.2 nM and “inverse agonist”.
The compound `CCc1cnc(-c2ccc3c(c2)CC[C@H]3N2CC3(CCN(C(=O)Cc4ccc(OC)cn4)CC3)C2)nc1` [Example 3A, 2-[(1R)-5-(5-Ethylpyrimidin-2-yl)-2,3-dihydro-1H-inden-1-yl]-7-[(5-methoxypyridin-2-yl)acetyl]-2,7-diazaspiro[3.5]nonane] gave an IC50 on human GHSR1a [1] of 9.46 nM. At human GHSR1a [1] (setting [4]), this compound gave a Ki of 9.03 nM. The functional comment result at human GHSR1a [2] was “inverse agonist”.
For the compound `Cc1cc(C)nc(-c2ccc3c(c2)CC[C@H]3N2CC3(CCN(C(=O)Cc4cn5nc(C)sc5n4)CC3)C2)n1` [Example 3AL], at human GHSR1a [1], the half-inhibitory concentration (IC50) was determined as 7.73 nM and the affinity corresponds to a Ki of 6.91 nM. Further, the functional comment result at human GHSR1a [2] was “inverse agonist”.
The like results for `COc1ccc(CC(=O)N2CCC3(CC2)CN([C@@H]2CCc4cc(-c5ccn(C)n5)ccc42)C3)nc1` [Example 3N] were, in that order, 82.6 nM, 71.3 nM and “inverse agonist”.
On human GHSR1a [1], `COc1ccc(CC(=O)N2CCC3(CC2)CN([C@@H]2CCc4cc(-n5nccn5)ccc42)C3)nc1` [Example 6D] came in with an IC50 of 3.44 nM. For the same compound, the Ki at human GHSR1a [1] (setting [4]) is 3.32 nM. In addition, the functional comment entry at human GHSR1a [2] is “inverse agonist”.
Consider “5-{(1R)-1-[7-(2,3-dihydro[1,4]dioxino[2,3-b]pyridin-6-yl)acetyl)-2,7-diazaspiro[3.5]non-2-yl]-2,3-dihydro-1H-inden-5-yl}pyridine-2-carboxamide [Example 9A]”, for which the IC50 on human GHSR1a [1] (setting [3]) worked out at 15.9 nM. The compound further registered a Ki at human GHSR1a [1] (setting [4]) of 13.9 nM. In addition, on human GHSR1a [2], the functional comment entry is listed as “inverse agonist”.
For `Cc1cc(-c2ccc3c(c2)CC[C@H]3N2CC3(CCN(C(=O)Cc4cn5c(C)c(C)sc5n4)CC3)C2)ncn1` [Example 3AR], at human GHSR1a [1], the IC50 worked out at 33.9 nM and the Ki is 30.3 nM. For the same compound, the functional comment result at human GHSR1a [2] was “inverse agonist”.
The like results for `COc1ccc(CC(=O)N2CCC3(CC2)CN([C@@H]2CCc4cc(-c5ncco5)ccc42)C3)cc1` [Example 3AD] were, in that order, 19.5 nM, 15.5 nM and “inverse agonist”.
For the compound `COc1ccc(CC(=O)N2CCC3(CC2)CN(C2CCc4cc(-c5nc(C)cc(C)n5)ccc42)C3)nc1` (racemic) [Example 2I], on human GHSR1a [1], the IC50 is 15.3 nM and the inhibition constant Ki was 51.2 nM. For the same compound, the functional comment entry on human GHSR1a [2] is given as “inverse agonist”.
The like results for `O=C(Cc1ccc(C2CC2)cn1)N1CCC2(CC1)CN([C@@H]1CCc3cc(-c4ncccn4)ccc31)C2` [Example 3AF] were, in that order, 7.41 nM, 6.13 nM and “inverse agonist”.
As for `COc1ccc(CC(=O)N2CCC3(CC2)CN([C@@H]2CCc4cc(-c5ncc(C)cn5)ccc42)C3)nc1` [Example 3H], on human GHSR1a [1], the IC50 was found to be 9.51 nM. Also, the Ki at human GHSR1a [1] (setting [4]) is 9.17 nM. In addition, the functional comment result at human GHSR1a [2] is given as “inverse agonist”.
On to `Cc1cc(-c2ccc3c(c2)CC[C@H]3N2CC3(CCN(C(=O)Cc4cn5nc(C)sc5n4)CC3)C2)ncn1` [Example 3Z, 7-[(2-methylimidazo[2,1-b][1,3,4]thiadiazol-6-yl)acetyl]-2-[(1R)-5-(6-methylpyrimidin-4-yl)-2,3-dihydro-1H-inden-1-yl]-2,7-diazaspiro[3.5]nonane], for which, on human GHSR1a [1], the IC50 was 6.78 nM and the Ki was determined as 6.07 nM. For the same compound, at human GHSR1a [2], the functional comment result is “inverse agonist”.
